# In patent EP4417607A1, “HETEROCYCLIC COMPOUND AS SOS1 INHIBITOR AND USES THEREOF” (Nanjing Zaiming Pharmaceutical Co., Ltd., priority 2021, dated 2023):
# Experiment: Plasma protein binding rate by equilibrium dialysis
# Type: in vitro ADME
# Settings: CD-1 mouse plasma, 1 µM compound, 6 h dialysis at 37 °C
# Experimental: • 1. CD-1 mouse plasma (BioIVT) • 2. 96-well equilibrium dialysis plate (HTDialysis LLC, Gales Ferry, CT, HTD96B) and equilibrium dialysis membrane (MWCO 12-14K, #1101) • 3. Positive control compound warfarin • 4. ABI QTrap 5500 liquid chromatography-mass spectrometry system
# • 1. Preparation of a buffer with a concentration of 100 mM sodium phosphate and 150 mM NaCl: an alkaline solution with a concentration of 14.2 g/L Na2HPO4 and 8.77 g/L NaCl was prepared with ultrapure water, and an acidic solution with a concentration of 12.0 g/L NaH2PO4 and 8.77 g/L NaCl was prepared with ultrapure water. The alkaline solution was titrated with the acidic solution until the pH was 7.4 to prepare a buffer with a concentration of 100 mM sodium phosphate and 150 mM NaCl. • 2. Preparation of a dialysis membrane: the dialysis membrane was soaked in ultrapure water for 60 min to separate the membrane into two pieces, then soaked with 20% ethanol for 20 min, and finally soaked with dialysis buffer for 20 min. • 3. Preparation of plasma: the frozen plasma was quickly thawed at room temperature and then centrifuged at 3,220 g at 4 °C for 10 min to remove clots, and the supernatant was collected to a new centrifuge tube. The pH of the plasma was measured and recorded. The plasma with pH 7-8 was used. • 4. Preparation of a plasma sample containing the compound: A 10 mM stock solution of the compound or the positive control compound was diluted with DMSO to give a 200 µM working solution. 3 µL of 200 µM of the compound working solution was added to 597 µL of mouse plasma to give a plasma sample with a final concentration of 1 µM. • 5. Equilibrium dialysis procedures: a dialysis device was assembled according to the instructions. […]
# The peak areas of the compound on the buffer side and the plasma side were measured. The plasma protein binding rate of the compound was calculated by the following formula: [formula] %Binding rate = 1−%Free rate [formula]
# All data were calculated by Microsoft Excel software. […]
row,Compound,%Binding rate [%]
1,"[2H][C@](C)(Nc1nc(C)nc2c(N3CCOCC3)c(=O)n(C3(CF)CC3)cc12)c1cccc(C(F)F)c1F [Example 55, (R)-4-((1-(3-(difluoromethyl)-2-fluorophenyl)ethyl-1-d)amino)-6-(1-(fluoromethyl)cyclopropyl)-2-methyl-8-morpholinylpyrido[4,3-d]pyrimidine-7(6H)-one]",95.7
2,"Cc1nc(N[C@H](C)c2cccc(C(F)F)c2F)c2cn(C3(CF)CC3)c(=O)c(N3CCOC[C@@H]3C)c2n1 [Example 40, 4-(((R)-1-(3-(difluoromethyl)-2-fluorophenyl)ethyl)amino)-6-(1-(fluoromethyl)cyclopropyl)-2-methyl-8-((S)-3-methylmorpholine)pyrido[4,3-d]pyrimidine-7(6H)-one]",92.9
3,"[2H]C([2H])([2H])Oc1c(=O)n(C2(CF)CC2)cc2c(N[C@H](C)c3cccc(C(F)F)c3F)nc(C)nc12 [Example 23, (R)-4-((1-(3-(difluoromethyl)-2-fluorophenyl)ethyl)amino)-6-(1-(fluoromethyl)cyclopropyl)-8-(methoxy-d3)-2-methylpyrido[4,3-d]pyrimidine-7(6H)-one]",91.3
